Experimental data: PubChem BioAssay AID2579 (University of Pittsburgh Molecular Library Screening Center, 2010)
The source made the active and inactive calls. No rule for the calls is given here.

Molecular target: Glucose-6-phosphate 1-dehydrogenase (Leuconostoc mesenteroides) (UniProt P11411)
Test: Leuconostoc G6PDH inhibition potency, SAR follow-up, counter-screen for TbHK1 inhibitor project, biochemical, analogue series, IC50 (AID 2579)
Details: Purified L. mesenteroides G6PDH enzyme assay, counterscreen

Sequence of Glucose-6-phosphate 1-dehydrogenase (Leuconostoc mesenteroides) (P11411 whole entry, looked up): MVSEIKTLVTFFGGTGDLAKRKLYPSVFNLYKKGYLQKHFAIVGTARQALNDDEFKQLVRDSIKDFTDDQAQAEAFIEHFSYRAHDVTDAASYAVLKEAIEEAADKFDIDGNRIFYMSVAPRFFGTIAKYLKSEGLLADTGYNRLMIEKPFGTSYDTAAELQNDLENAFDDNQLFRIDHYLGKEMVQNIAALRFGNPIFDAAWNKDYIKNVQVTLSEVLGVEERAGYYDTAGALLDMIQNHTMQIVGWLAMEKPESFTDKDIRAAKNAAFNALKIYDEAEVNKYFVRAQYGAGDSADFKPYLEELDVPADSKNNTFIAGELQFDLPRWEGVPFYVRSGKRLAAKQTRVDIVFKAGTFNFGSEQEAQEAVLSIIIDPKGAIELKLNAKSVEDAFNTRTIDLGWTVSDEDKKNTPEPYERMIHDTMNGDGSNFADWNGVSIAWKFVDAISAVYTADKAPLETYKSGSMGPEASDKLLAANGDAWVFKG

Row | SMILES | IC50
1 | CC(C)(C)c1ccc(C(=O)Nc2cc(Cl)ccc2-c2nn[nH]n2)cc1 | > 25 µM (inactive)
2 | Cc1cc(C(C#N)c2ccc(Cl)cc2)c(Cl)cc1NC(=O)c1cc(I)cc(I)c1O (centres undefined) | > 25 µM (inactive)
3 | O=c1c(O)c(-c2ccc(O)c(O)c2)oc2cc(O)cc(O)c12 | > 25 µM (inactive)
4 | CC(C)(C)c1ccc(C(=O)Nc2cc(Cl)c(F)cc2C(=O)O)cc1 | > 25 µM (inactive)
5 | CC1(c2ccc(C(=O)Nc3cc(Cl)ccc3C(=O)O)cc2)CC1 | > 25 µM (inactive)
6 | CC(C)(C)c1ccc(C(=O)Nc2cc(Cl)ccc2O)cc1 | > 25 µM (inactive)
7 | CC(C)(C)c1ccc(C(=O)Nc2cc(Cl)c(Cl)cc2C(=O)O)cc1 | > 25 µM (inactive)
8 | C=C(C)c1ccc(C(=O)Nc2cc(Cl)ccc2C(=O)O)cc1 | > 25 µM (inactive)
9 | COc1ccc(C(=O)Nc2cc(Cl)c(Br)cc2C(=O)O)cc1 | > 25 µM (inactive)
10 | COc1ccc(C(=O)Nc2cc(Cl)c(C)cc2C(=O)O)cc1 | > 25 µM (inactive)
11 | CC(C)(C)c1ccc(C(=O)Nc2cc(Cl)c(Br)cc2C(=O)O)cc1 | > 25 µM (inactive)
12 | COc1ccc(C(=O)Nc2cc(Cl)ccc2O)cc1 | > 25 µM (inactive)
13 | CC(C)(C)c1ccc(C(=O)Nc2cc(Br)ccc2C(=O)O)cc1 | > 25 µM (inactive)
14 | COc1ccc(N2C(=O)c3ccc(Cl)cc3C2=O)cc1 | > 25 µM (inactive)
